This is an account of results in US11931343B2 (ARCUS BIOSCIENCES, INC., priority 2018, dated 2024).

Some results are limits rather than exact numbers.

This experiment has as its target T1, human CD73 (Homo sapiens, UniProt P21589).
T1 sequence (P21589 27-549): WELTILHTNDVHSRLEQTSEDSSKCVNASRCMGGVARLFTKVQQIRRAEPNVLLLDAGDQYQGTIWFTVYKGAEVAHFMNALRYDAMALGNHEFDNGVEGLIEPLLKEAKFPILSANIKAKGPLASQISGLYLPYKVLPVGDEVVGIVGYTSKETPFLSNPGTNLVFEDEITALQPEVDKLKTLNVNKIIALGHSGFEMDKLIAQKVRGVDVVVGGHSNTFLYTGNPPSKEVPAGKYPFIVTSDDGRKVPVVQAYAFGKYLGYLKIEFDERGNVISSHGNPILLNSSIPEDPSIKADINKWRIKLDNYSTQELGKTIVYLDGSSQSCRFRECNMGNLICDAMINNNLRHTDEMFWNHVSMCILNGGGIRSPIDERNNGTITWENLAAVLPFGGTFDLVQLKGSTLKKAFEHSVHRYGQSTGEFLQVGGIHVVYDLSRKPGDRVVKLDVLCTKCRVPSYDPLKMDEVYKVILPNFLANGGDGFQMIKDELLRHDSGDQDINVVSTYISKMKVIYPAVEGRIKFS
Kind of experiment: Inhibition of Ecto-5′-nucleotidase (CD73) activity in CHO-CD73 cells, phosphate release from AMP. The experiment is classed as cell-based. The following applies: CHO-K1 cells stably transfected with human CD73; 25 μM AMP; 50 minutes, 37° C.; read-out: Potency: CD73 IC50.

As usually defined, the IC50 is the concentration needed to halve the response being measured. With `COc1cc(F)ccc1Cn1nccc1-c1cc2c(cn1)nnn2-c1ccc2[nH]c(=O)[nH]c2c1` [Example 237], the half-inhibitory concentration (IC50) was more than 1 µM.

Regarding `O=c1[nH]c2ccc(-n3nnc4c(Cl)cc(-c5ccnn5Cc5ccncc5F)cc43)cc2[nH]1` [Example 238], the IC50 fell in the range of 0.1 to 1 µM.

Turning to `N#Cc1ccc(Cn2nccc2-c2cc(F)c3nnn(-c4ccc5[nH]c(=O)[nH]c5c4)c3c2)c(F)c1` [Example 239], the IC50 fell in the range of 0.1 to 1 µM.

For `N#Cc1ccc(Cn2nccc2-c2ccc3nnn(-c4ccc5[nH]c(=O)[nH]c5c4)c3c2)c(F)c1` [Example 240], the 50% inhibitory concentration (IC50) lay in the range of 0.1 to 1 µM.

In the case of `Cc1cc(C)cc(-n2nccc2-c2cc(Cl)c3nnn(-c4ccc5[nH]c(=O)[nH]c5c4)c3c2)c1` [Example 241], the 50% inhibitory concentration (IC50) was in the range of 0.1 to 1 µM.

For `O=c1[nH]c2ccc(-n3nnc4c(F)cc(-c5ccnn5Cc5cccc6cn[nH]c56)cc43)cc2[nH]1` [Example 242], the IC50 was more than 1 µM.

For `O=c1[nH]c2ccc(-n3nnc4c(F)cc(-c5ccnn5Cc5nc6ccccc6[nH]5)cc43)cc2[nH]1` [Example 243], the IC50 fell in the range of 0.1 to 1 µM.

As to `Cc1ncc(Cn2nccc2-c2cc(Cl)c3nnn(-c4ccc5[nH]c(=O)[nH]c5c4)c3c2)o1` [Example 244], the IC50 is more than 1 µM.

`COc1ccc(Cn2nccc2-c2cc(F)c3nnn(-c4ccc5[nH]c(=O)[nH]c5c4)c3c2)c(F)c1` [Example 245]: the half-inhibitory concentration (IC50) fell in the range of 0.1 to 1 µM.

With `COc1ccc(Cn2nccc2-c2cc(F)c3nnn(-c4ccc5[nH]c(=O)[nH]c5c4)c3c2)c(Cl)c1` [Example 246], the IC50 lay in the range of 0.1 to 1 µM.

Take `COc1ccc(Cn2nccc2-c2cc3c(cn2)nnn3-c2ccc3[nH]c(=O)[nH]c3c2)c(F)c1` [Example 247]: the IC50 lay in the range of 0.1 to 1 µM.

Turning to `COc1ccc(Cn2nccc2-c2cc3c(cn2)nnn3-c2ccc3[nH]c(=O)[nH]c3c2)c(Cl)c1` [Example 248], the IC50 fell in the range of 0.1 to 1 µM.

As for `Cn1nccc1Cn1nccc1-c1cc(F)c2nnn(-c3ccc4[nH]c(=O)[nH]c4c3)c2c1` [Example 249], the IC50 is more than 1 µM.

As to `N#Cc1ccc(Cn2nccc2-c2cc(Cl)c3nnn(-c4ccc5[nH]c(=O)[nH]c5c4)c3c2)c(Cl)c1` [Example 250], the IC50 was less than 0.1 µM.

Take `CS(=O)(=O)Nc1cc(Cl)ccc1Cn1nccc1-c1cc(F)c2nnn(-c3ccc4[nH]c(=O)[nH]c4c3)c2c1` [Example 251]: the IC50 is more than 1 µM.

For `O=c1[nH]c2ccc(-n3nnc4c(Cl)cc(-c5ccnn5Cc5cc(F)ccc5F)cc43)cc2[nH]1` [Example 252], the half-maximal inhibitory concentration (IC50) was more than 1 µM.

Turning to `Cc1ccc(Cn2nccc2-c2cc(Cl)c3nnn(-c4ccc5[nH]c(=O)[nH]c5c4)c3c2)c(F)c1F` [Example 253], the IC50 is 0.1 to 1 µM.

For the compound `O=c1[nH]c2ccc(-n3nnc4c(Cl)cc(-c5ccnn5Cc5ccc(F)c(F)c5)cc43)cc2[nH]1` [Example 254], the IC50 fell in the range of 0.1 to 1 µM.

Take `N#Cc1cnc(Cn2nccc2-c2cc(F)c3nnn(-c4ccc5[nH]c(=O)[nH]c5c4)c3c2)c(F)c1` [Example 255]: the IC50 was 0.1 to 1 µM.

As for `O=c1[nH]c2ccc(-n3nnc4c(Cl)cc(-c5ccnn5Cc5cc(F)c(Cl)cc5Cl)cc43)cc2[nH]1` [Example 256], the IC50 was in the range of 0.1 to 1 µM.

Regarding `O=c1[nH]c2ccc(-n3nnc4c(F)cc(-c5ccnn5Cc5ccc6[nH]cnc6c5)cc43)cc2[nH]1` [Example 257], the IC50 was more than 1 µM.

As for `CC(C)c1cccc(-n2nccc2-c2cc(Cl)c3nnn(-c4ccc5[nH]c(=O)[nH]c5c4)c3c2)c1` [Example 258], the 50% inhibitory concentration (IC50) is 0.1 to 1 µM.

As to `CS(=O)(=O)c1cc(C#N)ccc1Cn1nccc1-c1cc(F)c2nnn(-c3ccc4[nH]c(=O)[nH]c4c3)c2c1` [Example 260], the IC50 was 0.1 to 1 µM.

Regarding `CCS(=O)(=O)c1cc(C#N)ccc1Cn1nccc1-c1cc(F)c2nnn(-c3ccc4[nH]c(=O)[nH]c4c3)c2c1` [Example 261], the IC50 was 0.1 to 1 µM.

Consider `O=c1[nH]c2ccc(-n3nnc4c(Cl)cc(-c5ccnn5C5CCc6cc(Cl)ccc65)cc43)cc2[nH]1` (centres unmarked) [Example 262], for which the IC50 was in the range of 0.1 to 1 µM.

Take `Cc1cc(-n2nccc2-c2cc(Cl)c3nnn(-c4ccc5[nH]c(=O)[nH]c5c4)c3c2)ccc1Cl` [Example 263]: the 50% inhibitory concentration (IC50) is more than 1 µM.
